The record followed here is patent US20220298196A1, “NOVEL COMPOUND DERIVED FROM WATERMELON, AND COMPOSITION USING SAME” (HAGIHARA FARM PRODUCTION INSTITUTE CO., LTD., priority 2019, published 2022).

For one assay, the system named is p38MAP kinase. Description: Activation (phosphorylation) of signaling molecule after UV-B irradiation, western blotting. The settings on record: NHDF cells, precultured 24 hours, UV-B 25 mJ/cm2. In kind it is cell-based, human. The procedure:
(§1) Since activation of p38MAP kinase, SAPK/JNK, and NF-κB involving in an inflammatory response is deeply involved in the induction and production of MMPs after UV-B irradiation, activation (via phosphorylation) of these signaling molecules was studied by the western blotting method.
(§2) More specifically, the NHDF cells were precultured for 24 hours in the same manner as described above, rinsed with PBS twice, irradiated with UV-B with a light intensity of 25 mJ/cm^2, and subjected to western blotting to examine phosphorylation of p38MAP, SAPK/JNK, and NF-κB.
(§3) The data were shown by average±standard error (n=3). The comparison between multiple groups was performed by using the Tukey-Kramer test method (p<0.05).
(§4) Referring to FIG. 4(b), the horizontal axis of the graph indicates conditions of the samples, that is, the presence/absence of UV-B irradiation (“+”: irradiated with UV, “−”: not irradiated), the presence/absence of 4G3HBE (“+”: presence, “−”: absence), and the presence/absence of 4GBE (“+”: presence, “−”: absence). Further, the vertical axis indicates changes in phosphorylation, that is, a relative ratio of phosphorylation activity. Referring to FIG. 4(b), p38MAP, SAPK/JNK, and phosphorylated NF-κB increased by UV-B irradiation. However, the expression of the signaling molecules was suppressed by the presence of 4G3HBE or 4GBE.
In general terms: A western blot detects proteins with antibodies after separation by electrophoresis.

For another assay, the system named is SAPK/JNK. Described as above. In kind it is cell-based, human. As to conditions: NHDF cells, precultured 24 hours, UV-B 25 mJ/cm2. The procedure:
as §1, §2, §3, §4

The next assay has as its system NF-κB. Described as above. In kind it is cell-based, human. As to conditions: NHDF cells, precultured 24 hours, UV-B 25 mJ/cm2. The procedure:
as §1, §2, §3, §4

Assay [1] in a line: DPPH radical scavenging rate (antioxidative effect). As to conditions: 200 μM DPPH, 30 minutes, absorbance at 520 nm; compared with L-ascorbic acid. In kind it is biochemical. The procedure: In order to evaluate the antioxidation ability of the two novel compounds thus isolated, 200 μM DPPH (1,1-diphenyl-2-picrylhydrazyl) dissolved in 50% ethanol was prepared as a reagent. In the preparation procedure of the reagent, DPPH was first dissolved in ethanol, and an equal amount of Milli-Q water was then added to the mixture. Then, the resulting mixture was filtered with a 0.45 μm syringe filter to remove undissolved matters.
A sample solution in a volume of 150 μL and the 200 μM DPPH ethanol solution in a volume of 150 μL were mixed well in a 96-well plate. After the plate was left standing still for 30 minutes, the absorbance at 520 nm was measured using a microplate reader (Thermo Fisher Scientific, Multiscan-LUX). The radical scavenging rate was obtained using the formula (F1).
Note that in the formula, RD (%) represents the radical scavenging rate (%). ODblank520nm represents the absorbance at 520 nm of the reagent (DPPH) to which each of the sample solutions is not added, while ODsample520nm represents the absorbance at 520 nm of the reagent (DPPH) to which each of the sample solutions is added and mixed, followed by being left standing still for 30 minutes.
FIG. 2 is a graph of the result with a photograph of a state of the microplate. […]
(Loss of DPPH colour is used to gauge radical scavenging.)

A further assay has as its system NHDF cells. Put plainly: Amount of intracellular reactive oxygen species (ROS), CM-H2DCFDA. As to conditions: 50 μM, precultured 24 hours, UV-B 25 mJ/cm2, 1 hour, control 1%, UV-B alone about 1.7%. In kind it is cell-based, human. The source says: In the studies of “Antioxidative effect”, it was confirmed that 4G3HBE and 4GBE had approximately half of the antioxidation activity of vitamin C. On the other hand, according to “Inhibition of MMP-1 expression” and “Activation of signaling molecules”, it was thought that attenuation of the oxidative stress signal was induced by removal of ROS, generated by UV-B irradiation, by the antioxidation ability of 4G3HBE and 4GBE. Thus, the amount of the intracellular reactive oxygen species (ROS) was measured using CM-H2DCFDA, an indicator of ROS.
The NHDF cells (1.0×10^5 cells/mL) were cultured to a confluent state. Subsequently, 4G3HBE and 4GBE were each added to the cells at a final concentration of 50 μM, followed by preculturing for 24 hours. CM-H2DCFDA serving as a cell-permeable indicator of reactive oxygen was added to the cells at a final concentration of 10 μM one hour before ultraviolet ray irradiation. Subsequently, the cells were irradiated with UV-B with a light intensity of 25 mJ/cm^2 and further cultured for 1 hour in an incubator. Then, fluorescence was measured with an excitation wavelength of 495 nm and a fluorescent wavelength of 530 nm using a multimode microplate reader, Varioscan LUX. […]

In the next assay the test system is MMP-1. Description: Inhibition of MMP-1 protein expression after UV-B irradiation, western blotting. In kind it is cell-based, human. As to conditions: NHDF cells, 50 or 100 μM, precultured 24 hours, UV-B 25 mJ/cm2, 24 hours after irradiation. The procedure: Normal human dermal fibroblasts-Neo (NHDF, hereinafter, simply referred to as “NHDF cells”) were adjusted at 1×10^5 cells/mL and inoculated in a 12-well multi-well plate in a volume of 1 mL each and cultured to a confluent state. Subsequently, test samples (a final concentration of 50 or 100 μM (of each solvent-fractionated matter) (of each isolated substance)) were added to the cells and the cells were precultured for 24 hours. Subsequently, after rinsing with PBS twice, the cells were irradiated with UV-B with a light intensity of 25 mJ/cm^2.
The cells irradiated with ultraviolet rays were subjected to SDS-PAGE after 24 hours, and then western blotting was performed by transferring to PVDF (polyvinylidene difluoride), thereby detecting protein expression of MMP-1.
Referring to FIG. 3(a), in two columns in an upper part of the photograph, an upper column indicates the presence/absence of UV irradiation (“+”: irradiated with UV, “−”: not irradiated) and a lower column indicates samples (no sample indicated by “−”, 4G3HBE, and 4GBE). Further, a left part of the photograph indicates detection targets (MMP-1 and β-Actin) along a vertical direction. β-Actin is measured as a control.

Consider `CC(C)(O)C(OC(=O)/C=C/c1ccc(O)c(O)c1)C(=O)OCc1ccc(O[C@@H]2O[C@H](CO)[C@@H](O)[C@H](O)[C@H]2O)c(O)c1` (stereo partly drawn) [4G3HBE, 2-caffeoyl-3-hydroxy-3-methylbutyric 4′-β-D-glucopyranosyloxy-3′-hydroxybenzyl ester], for which, in the assay with p38MAP kinase, the “activation of p38MAP kinase (phosphorylation)” value was “significantly down-regulated”. The “activation of SAPK/JNK (phosphorylation)” value in the assay with SAPK/JNK was “significantly down-regulated”. Further, the “activation of NF-κB (phosphorylation)” value in the assay on NF-κB is reported as “significantly down-regulated”. Besides, the “antioxidative activity (radical scavenging rate) relative to vitamin C” value in assay [1] is “approximately half that of vitamin C”. Besides, the “intracellular ROS level” value with NHDF cells is given as “about 1.4%”. Also, the “expression of MMP-1 (protein, detection intensity)” value with MMP-1 is listed as “clearly suppressed the expression of MMP-1”.
On to `CC(C)(O)C(OC(=O)/C=C/c1ccc(O)c(O)c1)C(=O)OCc1ccc(O[C@@H]2O[C@H](CO)[C@@H](O)[C@H](O)[C@H]2O)cc1` (stereo partly drawn) [4GBE, 2-caffeoyl-3-hydroxy-3-methylbutyric 4′-β-D-glucopyranosyloxybenzyl ester], for which the “activation of p38MAP kinase (phosphorylation)” value with p38MAP kinase is listed as “significantly down-regulated”. Besides, the “activation of SAPK/JNK (phosphorylation)” value in the assay on SAPK/JNK is given as “significantly down-regulated”. The “activation of NF-κB (phosphorylation)” value in the assay with NF-κB is given as “significantly down-regulated”. Moreover, the “antioxidative activity (radical scavenging rate) relative to vitamin C” value in assay [1] is “approximately half that of vitamin C”. For the same molecule, the “intracellular ROS level” value with NHDF cells was “about 1.4%”. For the same molecule, the “expression of MMP-1 (protein, detection intensity)” value with MMP-1 was “clearly suppressed the expression of MMP-1”.
